Results on four molecules are retold here after patent publication US20240360153A1 (Regeneron Pharmaceuticals, Inc., priority 2023, published 2024).

Each structure is given as a SMILES string.

A short description of data set [1]: In vitro microsomal metabolic stability, human liver microsomes. It is filed as in vitro ADME. The settings on record: for Remaining (T = 60 min) / Remaining (T = NCF60 min) / half-life at 1 µM: Human liver microsomes; for Remaining (T = 60 min): with NADPH; for Remaining (T = NCF60 min): without NADPH regenerating system; for Remaining (T = 60 min) / Remaining (T = NCF60 min): 60 min; for CLint scaled at 1 µM / microsomal CLint at 1 µM: human, human liver microsomes; for CLint scaled at 1 µM / microsomal CLint at 1 µM / half-life at 1 µM: pH 7.2; for half-life at 1 µM: 0.5 mg/ml protein, NADPH. In outline: (§1)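 Compounds at 1 μM incubated at 37° C with pooled CD-1 mouse or human liver microsomes (0.5 mg/mL protein) plus NADPH regenerating system in 50 mM potassium phosphate, pH 7.2, 3.3 mM MgCl2; sampled at 0–60 min, 60-min no-NADPH control. Parent loss by LC/MS/MS analyte/IS peak-area ratio, n=1.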
(Microsomes from liver hold many membrane-bound enzymes, among them those of drug oxidation.)

A short description of data set [2]: In vitro microsomal metabolic stability, CD-1 mouse liver microsomes. It is filed as in vitro ADME. The settings on record: for CLint scaled at 1 µM / microsomal CLint at 1 µM: CD-1, mouse, mouse liver microsomes, pH 7.2; for half-life at 1 µM: CD-1, pH 7.2, 0.5 mg/ml protein, NADPH; for half-life at 1 µM / Remaining (T = 60 min) / Remaining (T = NCF60 min): Mouse liver microsomes; for Remaining (T = 60 min): with NADPH; for Remaining (T = NCF60 min): without NADPH regenerating system; for Remaining (T = 60 min) / Remaining (T = NCF60 min): 60 min. In outline:
as §1

Data set [3] relates to S6K1 (Thr389) phosphorylation (mTORC1 activity) in wild-type (WT) 293T cells. Nature of the data set: Inhibition of S6K1 (Thr389) phosphorylation in wild-type 293T cells (ELISA). It is filed as cell-based, human. The conditions noted are these: for IC50: Homo sapiens, HEK-293T, 2 h, wild-type 293T cells, 2 hours treatment; for fold lower potency compared with RAD001 (by IC50) / extent of inhibition of S6K1 (Thr389) phosphorylation: wild-type cells; for extent of inhibition of S6K1 (Thr389) phosphorylation: with increasing concentrations. In a few lines: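 WT 293T cells in DMEM + 10% FBS, grown 24 h to ~80% confluence, then treated 2 h at 37 °C in duplicate with compounds over an 8–11-point range from 0.001 pM to 10 μM. DMSO vehicle served as negative control. Phospho-S6K1 (Thr389) measured by ELISA.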
In general terms: ELISA stands for enzyme-linked immunosorbent assay.

Data set [4] concerns S6K1 (Thr389) phosphorylation (mTORC1 activity) in FKBP12 knock-out 293T cells. Put plainly: Inhibition of S6K1 (Thr389) phosphorylation in FKBP12 knock-out 293T cells (ELISA). It is filed as cell-based, human. The settings on record: for inhibition of S6K1 (Thr389) phosphorylation in the absence of FKBP12 (in words): FKBP12 knock-out cells; for selectivity for FKBP12 compared with RAD001 (in words): wild-type versus FKBP12 knock-out cells. In a few lines:
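CRISPR-generated FKBP12 knock-out HEK293T cells, alongside wild-type, were treated in duplicate for 2 hours at 37 °C with an 8–11-point dose range (0.001 pM–10 μM). Phospho-S6K1 Thr389 quantified by ELISA as an mTORC1 activity read-out, with DMSO as negative control.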

The CLint scaled is the capacity of the preparation to metabolise the compound, expressed as a volume cleared per time. A word on the microsomal CLint: it is the rate of metabolic loss divided by the concentration. Read a high microsomal CLint as faster metabolism. The half-life is the time in which the quantity being followed falls by half. By IC50 is commonly meant the point on the concentration scale where inhibition reaches its midpoint. Low readings indicate greater potency, high ones weaker potency. Regarding `CO[C@@H]1C[C@H](C[C@@H](C)[C@@H]2CC[C@H](C)/C=C(\C)[C@@H](O)[C@@H](OC)C(=O)[C@H](C)C[C@H](C)/C=C/C=C/C=C(\C)C(Nc3cccc(OC(F)(F)F)c3)C[C@@H]3CC[C@@H](C)[C@@](O)(O3)C(=O)C(=O)N3CCCCC3C(=O)O2)CC[C@H]1O` (stereo partly drawn) [Compound 58, (3S,6S,7E,9R,10R,12R,14S,15E,17E,19E,23S,26R,27R,34aS)-9,27-dihydroxy-3-((R)-1-((1S,3R,4R)-4-hydroxy-3-methoxycyclohexyl)propan-2-yl)-10-methoxy-6,8,12,14,20,26-hexamethyl-21-((3-(trifluoromethoxy)phenyl)amino)-5,6,9,10,12,13,14,21,22,23,24,25,26,27,32,33,34,34a-octadecahydro-3H-23,27-epoxypyrido[2,1-c][1]oxa[4]azacyclohentriacontine-1,11,28,29(4H,31H)-tetraone], in data set [1], the “Remaining (T = 60 min)” value is 55%, the “Remaining (T = NCF60 min)” value is reported as 93%, the CLint scaled at 1 µM is 18 mL/min/kg and the microsomal CLint at 1 µM is 20 µL/min/mg. The half-life at 1 µM in data set [1] was 1.16 h. Also, in data set [2], the intrinsic clearance (CLint scaled) at 1 µM was determined as 25.3 mL/min/kg, the microsomal CLint at 1 µM was determined as 6.4 µL/min/mg, the half-life at 1 µM worked out at 3.62 h and the “Remaining (T = 60 min)” value is recorded as 83%. For the same molecule, the “Remaining (T = NCF60 min)” value in data set [2] turned out to be 96%. Also, in data set [3], half-maximal inhibition (IC50) required 2.94 nM, the “fold lower potency compared with RAD001 (by IC50)” value (“fold lower potency” below) was found to be 35 fold and the “extent of inhibition of S6K1 (Thr389) phosphorylation” value (“extent of inhibition of S6K1” below) is on record as “near complete inhibition”. For the same molecule, in data set [4], the “inhibition of S6K1 (Thr389) phosphorylation in the absence of FKBP12 (in words)” value (“inhibition of S6K1 … (in words)” below) was “inhibited the mTORC1 signaling in a dose dependent manner” and the “selectivity for FKBP12 compared with RAD001 (in words)” value (from here on “selectivity for FKBP12”) is given as “relatively not FKBP12 selective”.
Regarding `CCOc1cccc(NC2C[C@@H]3CC[C@@H](C)[C@@](O)(O3)C(=O)C(=O)N3CCCCC3C(=O)O[C@H]([C@H](C)C[C@@H]3CC[C@@H](O)[C@H](OC)C3)CC[C@H](C)/C=C(\C)[C@@H](O)[C@@H](OC)C(=O)[C@H](C)C[C@H](C)/C=C/C=C/C=C/2C)c1` (stereo partly drawn) [Compound 59, (3S,6S,7E,9R,10R,12R,14S,15E,17E,19E,23S,26R,27R,34aS)-21-((3-ethoxyphenyl)amino)-9,27-dihydroxy-3-((R)-1-((1S,3R,4R)-4-hydroxy-3-methoxycyclohexyl)propan-2-yl)-10-methoxy-6,8,12,14,20,26-hexamethyl-5,6,9,10,12,13,14,21,22,23,24,25,26,27,32,33,34,34a-octadecahydro-3H-23,27-epoxypyrido[2,1-c][1]oxa[4]azacyclohentriacontine-1,11,28,29(4H,31H)-tetraone], in data set [1], the “Remaining (T = 60 min)” value is reported as 47%, the “Remaining (T = NCF60 min)” value worked out at 102%, the CLint scaled at 1 µM came out at 22.2 mL/min/kg and the microsomal CLint at 1 µM came to 24.7 µL/min/mg. In data set [1], the half-life at 1 µM was 0.937 h. Moreover, in data set [2], the intrinsic clearance (CLint scaled) at 1 µM was determined as 40.8 mL/min/kg, the intrinsic metabolic clearance (microsomal CLint) at 1 µM came to 10.3 µL/min/mg, the half-life at 1 µM came out at 2.25 h and the “Remaining (T = 60 min)” value was 76%. Besides, the “Remaining (T = NCF60 min)” value in data set [2] is listed as 112%. In data set [3], inhibition was half-maximal at 0.17 nM (IC50), the “fold lower potency” value turned out to be 2 fold and the “extent of inhibition of S6K1” value was “near complete inhibition”. Moreover, in data set [4], the “inhibition of S6K1 … (in words)” value is listed as “inhibited the mTORC1 signaling in a dose dependent manner” and the “selectivity for FKBP12” value is reported as “relatively not FKBP12 selective”.
With `CO[C@@H]1C[C@H](C[C@@H](C)[C@@H]2CC[C@H](C)/C=C(\C)[C@@H](O)[C@@H](OC)C(=O)[C@H](C)C[C@H](C)/C=C/C=C/C=C(\C)C(Nc3ccc(Cl)cc3)C[C@@H]3CC[C@@H](C)[C@@](O)(O3)C(=O)C(=O)N3CCCCC3C(=O)O2)CC[C@H]1O` (stereo partly drawn) [Compound 48, (3S,6S,7E,9R,10R,12R,14S,15E,17E,19E,23S,26R,27R,34aS)-21-((4-chlorophenyl)amino)-9,27-dihydroxy-3-((R)-1-((1S,3R,4R)-4-hydroxy-3-methoxycyclohexyl)propan-2-yl)-10-methoxy-6,8,12,14,20,26-hexamethyl-5,6,9,10,12,13,14,21,22,23,24,25,26,27,32,33,34,34a-octadecahydro-3H-23,27-epoxypyrido[2,1-c][1]oxa[4]azacyclohentriacontine-1,11,28,29(4H,31H)-tetraone], in data set [1], the “Remaining (T = 60 min)” value is reported as 32%, the “Remaining (T = NCF60 min)” value came to 107%, the CLint scaled at 1 µM amounted to 37.8 mL/min/kg and the intrinsic clearance (microsomal CLint) at 1 µM was 42.1 µL/min/mg. Also, the half-life at 1 µM in data set [1] was 0.55 h. In data set [2], the intrinsic metabolic clearance (microsomal CLint) at 1 µM is less than 9.6 µL/min/mg, the half-life at 1 µM is greater than 2.42 h, the “Remaining (T = 60 min)” value was determined as 101% and the “Remaining (T = NCF60 min)” value is recorded as 150%. Moreover, in data set [3], half-maximal inhibition (IC50) required 9.8 nM, the “fold lower potency” value was determined as 30 fold and the “extent of inhibition of S6K1” value is on record as “near complete inhibition”. Moreover, in data set [4], the “inhibition of S6K1 … (in words)” value is recorded as “did not inhibit S6K1 (Thr389)phosphorylation at any tested concentrations” and the “selectivity for FKBP12” value is listed as “relatively more selective to FKBP12 compared with RAD001”.
With `CO[C@@H]1C[C@H](C[C@@H](C)[C@@H]2CC[C@H](C)/C=C(\C)[C@@H](O)[C@@H](OC)C(=O)[C@H](C)C[C@H](C)/C=C/C=C/C=C(\C)C(Nc3ccc(C)cc3)C[C@@H]3CC[C@@H](C)[C@@](O)(O3)C(=O)C(=O)N3CCCCC3C(=O)O2)CC[C@H]1O` (stereo partly drawn) [Compound 49, (3S,6S,7E,9R,10R,12R,14S,15E,17E,19E,23S,26R,27R,34aS)-9,27-dihydroxy-3-((R)-1-((1S,3R,4R)-4-hydroxy-3-methoxycyclohexyl)propan-2-yl)-10-methoxy-6,8,12,14,20,26-hexamethyl-21-(p-tolylamino)-5,6,9,10,12,13,14,21,22,23,24,25,26,27,32,33,34,34a-octadecahydro-3H-23,27-epoxypyrido[2,1-c][1]oxa[4]azacyclohentriacontine-1,11,28,29(4H,31H)-tetraone], in data set [1], the “Remaining (T = 60 min)” value worked out at 15%, the “Remaining (T = NCF60 min)” value is listed as 102%, the intrinsic metabolic clearance (CLint scaled) at 1 µM was found to be 59.6 mL/min/kg and the microsomal CLint at 1 µM worked out at 66.2 µL/min/mg. Besides, the half-life at 1 µM in data set [1] was 0.348 h. In data set [2], the intrinsic metabolic clearance (CLint scaled) at 1 µM came out at 42.3 mL/min/kg, the microsomal CLint at 1 µM amounted to 10.7 µL/min/mg, the half-life at 1 µM was determined as 2.17 h and the “Remaining (T = 60 min)” value turned out to be 67%. The “Remaining (T = NCF60 min)” value in data set [2] was 139%. In data set [3], 9.5 nM corresponded to half-maximal inhibition (IC50), the “fold lower potency” value turned out to be 29 fold and the “extent of inhibition of S6K1” value is “near complete inhibition”. In addition, in data set [4], the “inhibition of S6K1 … (in words)” value is “did not inhibit S6K1 (Thr389)phosphorylation at any tested concentrations” and the “selectivity for FKBP12” value is given as “relatively more selective to FKBP12 compared with RAD001”.
